Literature values in patent US20170112824A1, “COMBINATION THERAPIES FOR THE TREATMENT OF FUNGAL INFECTIONS” (priority 2015, published 2017).

Assays:
[1] = in vivo

absorption [1]: readily absorbed | water solubility: water-soluble
Structure (SMILES): NC(=O)NO [Hydroxyurea, hydroxyurea]
